The values below come from patent US5773239A, “Mannosidase inhibitors, process for their preparation and their use as therapeutic agents” (Mount Sinai Hospital Corporation., priority 1995, dated 1998).

This assay has as its target T1, rat liver Golgi α-mannosidase II (Rattus norvegicus, UniProt P28494).
T1 construct: The assay for rat liver Golgi α-mannosidase II; from tissue; host or cells: rat liver (Golgi)
T1 sequence (P28494 1-1148): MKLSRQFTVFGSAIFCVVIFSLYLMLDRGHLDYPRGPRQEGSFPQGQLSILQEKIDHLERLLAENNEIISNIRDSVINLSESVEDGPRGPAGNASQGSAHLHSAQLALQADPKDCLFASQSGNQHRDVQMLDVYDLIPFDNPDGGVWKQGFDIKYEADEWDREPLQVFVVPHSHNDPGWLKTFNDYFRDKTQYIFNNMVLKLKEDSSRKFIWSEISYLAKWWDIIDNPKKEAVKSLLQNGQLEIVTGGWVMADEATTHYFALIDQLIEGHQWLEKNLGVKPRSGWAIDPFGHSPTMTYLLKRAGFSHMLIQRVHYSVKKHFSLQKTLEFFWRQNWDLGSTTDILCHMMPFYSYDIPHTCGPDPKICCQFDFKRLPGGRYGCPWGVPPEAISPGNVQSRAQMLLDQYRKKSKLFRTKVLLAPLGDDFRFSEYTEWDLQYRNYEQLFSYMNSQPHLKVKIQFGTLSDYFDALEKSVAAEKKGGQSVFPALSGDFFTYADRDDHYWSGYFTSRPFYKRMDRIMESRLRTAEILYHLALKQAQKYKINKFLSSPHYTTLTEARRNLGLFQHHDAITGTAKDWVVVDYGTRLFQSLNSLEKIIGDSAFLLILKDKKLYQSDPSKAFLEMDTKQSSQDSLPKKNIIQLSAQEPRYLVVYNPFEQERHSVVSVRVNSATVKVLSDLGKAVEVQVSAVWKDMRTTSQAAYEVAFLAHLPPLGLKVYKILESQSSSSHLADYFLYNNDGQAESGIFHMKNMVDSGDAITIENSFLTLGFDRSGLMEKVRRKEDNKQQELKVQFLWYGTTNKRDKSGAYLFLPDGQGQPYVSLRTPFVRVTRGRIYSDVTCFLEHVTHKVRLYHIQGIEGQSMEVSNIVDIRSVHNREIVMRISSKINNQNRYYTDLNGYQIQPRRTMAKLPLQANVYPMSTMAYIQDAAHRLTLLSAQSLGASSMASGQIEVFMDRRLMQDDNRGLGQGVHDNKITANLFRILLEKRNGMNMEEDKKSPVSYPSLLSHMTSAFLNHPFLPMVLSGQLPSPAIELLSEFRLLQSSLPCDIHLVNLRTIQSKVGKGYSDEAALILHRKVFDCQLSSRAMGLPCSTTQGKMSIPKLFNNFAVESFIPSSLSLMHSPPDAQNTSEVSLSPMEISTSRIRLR
The assay is described as follows: Rat liver Golgi α-mannosidase II assay. As to conditions: para-nitrophenyl α-mannose, pH 5.6; read-out: IC50 ManII. The class given is biochemical. The protocol:
The assay for rat liver Golgi α-mannosidase II contained 5 mM para-nitrophenylα-mannose, 40 mM sodium acetate pH 5.6, plus serially diluted test compouunds and mannosidase enzyme in a total volume of 50 ul, in 96 well plates. Plates were incubated 45 min at 37° C., then the reaction was stopped with 50 μl of 0.5M sodium carbonate. […] The lysosomal mannosidase was done in the same procedure but with 40 mM sodium acetate buffer pH 5.0. The numbers in the table are IC50 values in μM for inhibition of mannosidase activity.

One may read the IC50 as the concentration that inhibits the measured activity by half. Regarding `O[C@H]1[C@H]2[C@H](O)CCCN2C[C@H]1O` [SW, Swainsonine, reference compound], the IC50 was found to be 100 nM.
